The data set concerns CCRIS mutagenicity, Ames/micronucleus/aberration tests. Put plainly: CCRIS mutagenicity studies.
Setting [1] is: Test System: AMES SALMONELLA TYPHIMURIUM, Strain/Indicator: TA98, Metabolic Activation: NONE, Method: PREINCUBATION
Where [2] appears, read: Test System: AMES SALMONELLA TYPHIMURIUM, Strain/Indicator: TA100, Metabolic Activation: NONE, Method: PREINCUBATION
The mark [3] stands for this setting: Test System: AMES SALMONELLA TYPHIMURIUM, Strain/Indicator: TA1535, Metabolic Activation: NONE, Method: PREINCUBATION
The mark [4] stands for this setting: Test System: AMES SALMONELLA TYPHIMURIUM, Strain/Indicator: TA1538, Metabolic Activation: NONE, Method: PREINCUBATION
Where [5] appears, read: Test System: AMES SALMONELLA TYPHIMURIUM, Strain/Indicator: TA100, Metabolic Activation: RAT, LIVER, S-9, PHENOBARBITAL AND 5,6-BENZOFLAVONE, Method: PREINCUBATION

Among the data in PubChem BioAssay AID1259407 (Chemical Carcinogenesis Research Information System (CCRIS), 2018) are mutagenic call values, retold here.

The source made the active and inactive calls. How the calls were made is not given here.

With `O=C(O)c1cc2ccccc2cc1O`, the mutagenic call is, setting by setting: (End Point: In vitro chromosomal aberrations, Test System: Chinese hamster lung (CHL/IU) cells, Metabolic Activation: Rat, Liver, S9, Phenobarbital and 5,6-benzoflavone) “active; positive (structural changes and ploidy). precipitation of test chemical at 1.0”; under setting [1], “inactive; negative”; (Test System: AMES SALMONELLA TYPHIMURIUM, Strain/Indicator: TA98, Metabolic Activation: RAT LIVER S-9, PHENOBARBITAL AND BETA-NAPHTHOFLAVONE, Method: PREINCUBATION) “inactive; negative”; (Test System: AMES SALMONELLA TYPHIMURIUM, Strain/Indicator: TA98, Metabolic Activation: RAT, LIVER, S-9, KC 500, Method: PREINCUBATION) “inactive; negative”; under setting [2], “inactive; negative”; (Test System: AMES SALMONELLA TYPHIMURIUM, Strain/Indicator: TA100, Metabolic Activation: RAT LIVER S-9, PHENOBARBITAL AND BETA-NAPHTHOFLAVONE, Method: PREINCUBATION) “inactive; negative”. Also, the mutagenic call is “inactive; negative” (Test System: AMES SALMONELLA TYPHIMURIUM, Strain/Indicator: TA100, Metabolic Activation: RAT, LIVER, S-9, KC 500, Method: PREINCUBATION); “inactive; negative” under setting [3]; “inactive; negative” (Test System: AMES SALMONELLA TYPHIMURIUM, Strain/Indicator: TA1535, Metabolic Activation: RAT LIVER S-9, PHENOBARBITAL AND BETA-NAPHTHOFLAVONE, Method: PREINCUBATION); “inactive; negative” (Test System: AMES SALMONELLA TYPHIMURIUM, Strain/Indicator: TA1535, Metabolic Activation: RAT, LIVER, S-9, KC 500, Method: PREINCUBATION); “inactive; negative” (Test System: AMES SALMONELLA TYPHIMURIUM, Strain/Indicator: TA1537, Metabolic Activation: RAT LIVER S-9, PHENOBARBITAL AND BETA-NAPHTHOFLAVONE, Method: PREINCUBATION); “inactive; negative” (Test System: AMES SALMONELLA TYPHIMURIUM, Strain/Indicator: TA1537, Metabolic Activation: RAT, LIVER, S-9, KC 500, Method: PREINCUBATION). Also, the mutagenic call is “inactive; negative” under setting [4]; “inactive; negative” (Test System: AMES SALMONELLA TYPHIMURIUM, Strain/Indicator: TA1538, Metabolic Activation: RAT LIVER S-9, PHENOBARBITAL AND BETA-NAPHTHOFLAVONE, Method: PREINCUBATION); “inactive; negative” (Test System: AMES SALMONELLA TYPHIMURIUM, Strain/Indicator: TA1538, Metabolic Activation: RAT, LIVER, S-9, KC 500, Method: PREINCUBATION); “inactive; negative” (Test System: E. COLI, Strain/Indicator: WP2UVRA/PKM101, Metabolic Activation: NONE, Method: PREINCUBATION); “inactive; negative” (Test System: E. COLI, Strain/Indicator: WP2UVRA/PKM101, Metabolic Activation: RAT LIVER S-9, PHENOBARBITAL AND BETA-NAPHTHOFLAVONE, Method: PREINCUBATION); “inactive; negative” (Test System: E. COLI, Strain/Indicator: WP2 UVRA, Metabolic Activation: NONE, Method: PREINCUBATION). In addition, the mutagenic call runs as follows: (Test System: E. COLI, Strain/Indicator: WP2UVRA, Metabolic Activation: NONE, Method: PREINCUBATION) “inactive; negative”; (Test System: E. COLI, Strain/Indicator: WP2UVRA, Metabolic Activation: RAT LIVER S-9, PHENOBARBITAL AND BETA-NAPHTHOFLAVONE, Method: PREINCUBATION) “inactive; negative”; (Test System: E. COLI, Strain/Indicator: WP2 UVRA, Metabolic Activation: RAT, LIVER, S-9, KC 500, Method: PREINCUBATION) “inactive; negative”.
Consider `O=C1C=C(Nc2ccccc2)C(=O)c2ccccc21`, for which the mutagenic call runs as follows: (Test System: AMES SALMONELLA TYPHIMURIUM, Strain/Indicator: TA97, Metabolic Activation: NONE, Method: PREINCUBATION) “inactive; negative”; (Test System: AMES SALMONELLA TYPHIMURIUM, Strain/Indicator: TA97, Metabolic Activation: RAT, LIVER, S-9, PHENOBARBITAL AND 5,6-BENZOFLAVONE, Method: PREINCUBATION) “active; positive”; under setting [1], “inactive; negative”; (Test System: AMES SALMONELLA TYPHIMURIUM, Strain/Indicator: TA98, Metabolic Activation: RAT, LIVER, S-9, PHENOBARBITAL AND 5,6-BENZOFLAVONE, Method: PREINCUBATION) “active; positive”; under setting [2], “inactive; negative”; under setting [5], “inactive; negative”. Further, the mutagenic call (Test System: AMES SALMONELLA TYPHIMURIUM, Strain/Indicator: TA102, Metabolic Activation: NONE, Method: PREINCUBATION) is “inactive; negative”; the mutagenic call (Test System: AMES SALMONELLA TYPHIMURIUM, Strain/Indicator: TA102, Metabolic Activation: RAT, LIVER, S-9, PHENOBARBITAL AND 5,6-BENZOFLAVONE, Method: PREINCUBATION) was “inactive; negative”; the mutagenic call (Test System: AMES SALMONELLA TYPHIMURIUM, Strain/Indicator: TA104, Metabolic Activation: NONE, Method: PREINCUBATION) is “inactive; negative”; the mutagenic call (Test System: AMES SALMONELLA TYPHIMURIUM, Strain/Indicator: TA104, Metabolic Activation: RAT, LIVER, S-9, PHENOBARBITAL AND 5,6-BENZOFLAVONE, Method: PREINCUBATION) was “active; positive”; the mutagenic call under setting [3] is “inactive; negative”; the mutagenic call (Test System: AMES SALMONELLA TYPHIMURIUM, Strain/Indicator: TA1535, Metabolic Activation: RAT, LIVER, S-9, PHENOBARBITAL AND 5,6-BENZOFLAVONE, Method: PREINCUBATION) was “inactive; negative”. The mutagenic call runs as follows: (Test System: AMES SALMONELLA TYPHIMURIUM, Strain/Indicator: TA1537, Metabolic Activation: NONE, Method: PREINCUBATION) “inactive; negative”; (Test System: AMES SALMONELLA TYPHIMURIUM, Strain/Indicator: TA1537, Metabolic Activation: RAT, LIVER, S-9, PHENOBARBITAL AND 5,6-BENZOFLAVONE, Method: PREINCUBATION) “active; positive”; under setting [4], “inactive; negative”; (Test System: AMES SALMONELLA TYPHIMURIUM, Strain/Indicator: TA1538, Metabolic Activation: RAT, LIVER, S-9, PHENOBARBITAL AND 5,6-BENZOFLAVONE, Method: PREINCUBATION) “active; positive”; (Test System: AMES SALMONELLA TYPHIMURIUM, Strain/Indicator: TA2637, Metabolic Activation: NONE, Method: PREINCUBATION) “active; positive”; (Test System: AMES SALMONELLA TYPHIMURIUM, Strain/Indicator: TA2637, Metabolic Activation: RAT, LIVER, S-9, PHENOBARBITAL AND 5,6-BENZOFLAVONE, Method: PREINCUBATION) “active; positive”.
Take `Nc1cccc2ncccc12`: the mutagenic call under setting [1] is “inactive; negative”; the mutagenic call (Test System: AMES SALMONELLA TYPHIMURIUM, Strain/Indicator: TA98, Metabolic Activation: RAT, LIVER, S-9, KANECHLOR 500 OR PHENOBARBITAL AND BETA-NAPHTHOFLAVONE, Method: PREINCUBATION) was “active; positive”; the mutagenic call under setting [2] was “inactive; negative”; the mutagenic call (Test System: AMES SALMONELLA TYPHIMURIUM, Strain/Indicator: TA100, Metabolic Activation: RAT, LIVER, S-9, KANECHLOR 500 OR PHENOBARBITAL AND BETA-NAPHTHOFLAVONE, Method: PREINCUBATION) is “active; positive”; the mutagenic call under setting [5] is “active; positive”.
